Source: patent US9556165B2 (priority 2012, dated 2017)
In brackets after ≈: the same amount, converted by molar mass.

Experiments:
Assay type in all cases: cell-based
E. coli J62 = assay: MIC determination, broth microdilution (CLSI); settings: Escherichia coli, J62, strain 17; read-out: strain 17 MIC
E. coli ATCC25922 = assay: MIC determination, broth microdilution (CLSI); settings: Escherichia coli, ATCC25922, strain 1
E. cloacae 34654 = assay: MIC determination, broth microdilution (CLSI); settings: Enterobacter cloacae, 34654, strain 3
C. perfringens DSM756 = assay: microbe, parasite or virus in culture; settings: Clostridium perfringens, DSM756, read-out: strain 16 MIC, strain 16
E. coli J62-TEM-3 = assay: MIC determination, broth microdilution (CLSI); settings: Escherichia coli, J62TEM3, read-out: strain 18 MIC, strain 18
M. catarrhalis ICB489 = assay: MIC determination, broth microdilution (CLSI); settings: Moraxella catarrhalis, ICB489, strain 12
H. influenzae ATCC 49247 = assay: MIC determination, broth microdilution (CLSI); settings: Haemophilus influenzae, ATCC49247, strain 13; read-out: strain 13 MIC
A. baumannii ATCC15308 = assay: MIC determination, broth microdilution (CLSI); settings: Acinetobacter baumannii, ATCC15308, strain 9
S. maltophilia ICB7569 = assay: MIC determination, broth microdilution (CLSI); settings: Stenotrophomonas maltophilia, ICB7569, strain 10
M. morganii 126/3048 = assay: MIC determination, broth microdilution (CLSI); settings: Morganella morganii, 126/3048, strain 5
C. freundii K21/3034 = assay: MIC determination, broth microdilution (CLSI); settings: Citrobacter freundii, K21/3034, strain 4
S. pneumoniae 113 = assay: MIC determination, broth microdilution (CLSI); settings: Streptococcus pneumoniae, 113, strain 14; read-out: strain 14 MIC
strain 21 = assay: MIC determination, broth microdilution (CLSI)
[1] = system: P. aeruginosa 2297-con (AmpC derepressed); assay: MIC determination, broth microdilution (CLSI); settings: Pseudomonas aeruginosa, read-out: strain 8 MIC, strain 8
strain 19 = assay: MIC determination, broth microdilution (CLSI)
B. fragilis 6688 = assay: MIC determination, broth microdilution (CLSI); settings: Bacteroides fragilis, 6688, strain 15; read-out: strain 15 MIC
S. aureus 133 = assay: MIC determination, broth microdilution (CLSI); settings: Staphylococcus aureus, 133, strain 11; read-out: strain 11 MIC
[2] = system: P. aeruginosa 2297 (AmpC wt); assay: MIC determination, broth microdilution (CLSI); settings: Pseudomonas aeruginosa, strain 7
P. aeruginosa PAO1 = assay: MIC determination, broth microdilution (CLSI); settings: Pseudomonas aeruginosa, PAO1, strain 6
strain 20 = assay: MIC determination, broth microdilution (CLSI)
K. pneumoniae 60 = assay: MIC determination, broth microdilution (CLSI); settings: Klebsiella pneumoniae, 60, strain 2

## CC1(C)[C@H](NC(=O)/C(=N\OCCOc2ccc(C(=N)NCCNC=N)cc2)c2csc(N)n2)C(=O)N1OS(=O)(=O)O [Example 38]
E. coli J62
  MIC: 0.25 µg/mL (≈ 0.409 µM)
E. coli ATCC25922
  MIC: 0.125 µg/mL (≈ 0.204 µM)
E. cloacae 34654
  MIC: 0.25 µg/mL (≈ 0.409 µM)
C. perfringens DSM756
  MIC: 2 µg/mL (≈ 3.27 µM)
E. coli J62-TEM-3
  MIC: 4 µg/mL (≈ 6.54 µM)
M. catarrhalis ICB489
  MIC: ≤ 0.063 µg/mL
H. influenzae ATCC 49247
  MIC: ≤ 0.063 µg/mL
A. baumannii ATCC15308
  MIC: 0.25 µg/mL (≈ 0.409 µM)
S. maltophilia ICB7569
  MIC: 32 µg/mL (≈ 52.3 µM)
M. morganii 126/3048
  MIC: 0.5 µg/mL (≈ 0.817 µM)
C. freundii K21/3034
  MIC: 0.125 µg/mL (≈ 0.204 µM)
S. pneumoniae 113
  MIC: 2 µg/mL (≈ 3.27 µM)
Strain 21
  MIC: 0.25 µg/mL (≈ 0.409 µM)
[1]
  MIC: 4 µg/mL (≈ 6.54 µM)
Strain 19
  MIC: 0.125 µg/mL (≈ 0.204 µM)
B. fragilis 6688
  MIC: 4 µg/mL (≈ 6.54 µM)
S. aureus 133
  MIC: ≤ 0.063 µg/mL
[2]
  MIC: 8 µg/mL (≈ 13.1 µM)
P. aeruginosa PAO1
  MIC: 4 µg/mL (≈ 6.54 µM)
Strain 20
  MIC: 0.25 µg/mL (≈ 0.409 µM)
K. pneumoniae 60
  MIC: 0.25 µg/mL (≈ 0.409 µM)

## CC1(C)[C@H](NC(=O)/C(=N\OCCOc2cnc(C(=N)N)c(O)c2)c2csc(N)n2)C(=O)N1OS(=O)(=O)O [Example 33, (2Z)-2-(2-Amino-1,3-thiazol-4-yl)-2-({2-[(6-carbamimidoyl-5-hydroxypyridin-3-yl)oxy]ethoxy}imino)-N-[(3S)-2,2-dimethyl-4-oxo-1-(sulfooxy)azetidin-3-yl]ethanamide]
E. coli J62
  MIC: 0.5 µg/mL (≈ 0.895 µM)
E. coli ATCC25922
  MIC: 0.25 µg/mL (≈ 0.448 µM)
E. cloacae 34654
  MIC: 0.5 µg/mL (≈ 0.895 µM)
C. perfringens DSM756
  MIC: 2 µg/mL (≈ 3.58 µM)
E. coli J62-TEM-3
  MIC: 32 µg/mL (≈ 57.3 µM)
M. catarrhalis ICB489
  MIC: 0.125 µg/mL (≈ 0.224 µM)
H. influenzae ATCC 49247
  MIC: ≤ 0.063 µg/mL
A. baumannii ATCC15308
  MIC: 8 µg/mL (≈ 14.3 µM)
S. maltophilia ICB7569
  MIC: 16 µg/mL (≈ 28.6 µM)
M. morganii 126/3048
  MIC: 0.25 µg/mL (≈ 0.448 µM)
C. freundii K21/3034
  MIC: 0.25 µg/mL (≈ 0.448 µM)
S. pneumoniae 113
  MIC: 32 µg/mL (≈ 57.3 µM)
Strain 21
  MIC: 0.5 µg/mL (≈ 0.895 µM)
[1]
  MIC: 8 µg/mL (≈ 14.3 µM)
Strain 19
  MIC: 0.25 µg/mL (≈ 0.448 µM)
B. fragilis 6688
  MIC: 4 µg/mL (≈ 7.16 µM)
S. aureus 133
  MIC: ≤ 0.063 µg/mL
[2]
  MIC: 16 µg/mL (≈ 28.6 µM)
P. aeruginosa PAO1
  MIC: 8 µg/mL (≈ 14.3 µM)
Strain 20
  MIC: 0.25 µg/mL (≈ 0.448 µM)
K. pneumoniae 60
  MIC: 0.5 µg/mL (≈ 0.895 µM)

## CC1(C)[C@H](NC(=O)/C(=N\OCCOc2ccc(C(=N)NC3CCNCC3)cc2)c2csc(N)n2)C(=O)N1OS(=O)(=O)O [Example 23, (2Z)-2-(2-Amino-1,3-thiazol-4-yl)-N-[(3S)-2,2-dimethyl-4-oxo-1-(sulfooxy)azetidin-3-yl]-2-[(2-{4-[N-(piperidin-4-yl)carbamimidoyl]phenoxy}ethoxy)imino]ethanamide]
E. coli J62
  MIC: 0.25 µg/mL (≈ 0.4 µM)
E. coli ATCC25922
  MIC: 0.125 µg/mL (≈ 0.2 µM)
E. cloacae 34654
  MIC: 0.5 µg/mL (≈ 0.8 µM)
C. perfringens DSM756
  MIC: 2 µg/mL (≈ 3.2 µM)
E. coli J62-TEM-3
  MIC: 1 µg/mL (≈ 1.6 µM)
M. catarrhalis ICB489
  MIC: ≤ 0.063 µg/mL
H. influenzae ATCC 49247
  MIC: ≤ 0.063 µg/mL
A. baumannii ATCC15308
  MIC: 0.5 µg/mL (≈ 0.8 µM)
S. maltophilia ICB7569
  MIC: 16 µg/mL (≈ 25.6 µM)
M. morganii 126/3048
  MIC: 0.5 µg/mL (≈ 0.8 µM)
C. freundii K21/3034
  MIC: 0.125 µg/mL (≈ 0.2 µM)
S. pneumoniae 113
  MIC: 1 µg/mL (≈ 1.6 µM)
Strain 21
  MIC: 0.25 µg/mL (≈ 0.4 µM)
[1]
  MIC: 2 µg/mL (≈ 3.2 µM)
Strain 19
  MIC: 0.125 µg/mL (≈ 0.2 µM)
B. fragilis 6688
  MIC: 4 µg/mL (≈ 6.4 µM)
S. aureus 133
  MIC: ≤ 0.063 µg/mL
[2]
  MIC: 2 µg/mL (≈ 3.2 µM)
P. aeruginosa PAO1
  MIC: 2 µg/mL (≈ 3.2 µM)
Strain 20
  MIC: 0.125 µg/mL (≈ 0.2 µM)
K. pneumoniae 60
  MIC: 0.25 µg/mL (≈ 0.4 µM)

## CC1(C)[C@H](NC(=O)/C(=N\OCCOc2ccc(C(=N)NCCN)cc2)c2csc(N)n2)C(=O)N1OS(=O)(=O)O [Example 24, (2Z)-2-[(2-{4-[N-(2-Aminoethyl)carbamimidoyl]phenoxy}ethoxy)imino]-2-(2-amino-1,3-thiazol-4-yl)-N-[(3S)-2,2-dimethyl-4-oxo-1-(sulfooxy)azetidin-3-yl]ethanamide]
E. coli J62
  MIC: 0.125 µg/mL (≈ 0.214 µM)
E. coli ATCC25922
  MIC: 0.125 µg/mL (≈ 0.214 µM)
E. cloacae 34654
  MIC: 0.25 µg/mL (≈ 0.428 µM)
C. perfringens DSM756
  MIC: 2 µg/mL (≈ 3.42 µM)
E. coli J62-TEM-3
  MIC: 2 µg/mL (≈ 3.42 µM)
M. catarrhalis ICB489
  MIC: ≤ 0.063 µg/mL
H. influenzae ATCC 49247
  MIC: ≤ 0.063 µg/mL
A. baumannii ATCC15308
  MIC: 1 µg/mL (≈ 1.71 µM)
S. maltophilia ICB7569
  MIC: 8 µg/mL (≈ 13.7 µM)
M. morganii 126/3048
  MIC: 0.125 µg/mL (≈ 0.214 µM)
C. freundii K21/3034
  MIC: 0.125 µg/mL (≈ 0.214 µM)
S. pneumoniae 113
  MIC: 2 µg/mL (≈ 3.42 µM)
Strain 21
  MIC: 0.5 µg/mL (≈ 0.855 µM)
[1]
  MIC: 2 µg/mL (≈ 3.42 µM)
Strain 19
  MIC: 0.125 µg/mL (≈ 0.214 µM)
B. fragilis 6688
  MIC: 2 µg/mL (≈ 3.42 µM)
S. aureus 133
  MIC: ≤ 0.063 µg/mL
[2]
  MIC: 4 µg/mL (≈ 6.84 µM)
P. aeruginosa PAO1
  MIC: 2 µg/mL (≈ 3.42 µM)
Strain 20
  MIC: 0.25 µg/mL (≈ 0.428 µM)
K. pneumoniae 60
  MIC: 0.25 µg/mL (≈ 0.428 µM)

## CC1(C)[C@H](NC(=O)/C(=N\OCCOc2ccc(C3=NCCN3)cc2)c2csc(N)n2)C(=O)N1OS(=O)(=O)O [Example 25, (2Z)-2-(2-Amino-1,3-thiazol-4-yl)-2-({2-[4-(4,5-dihydro-1H-imidazol-2-yl)phenoxy]ethoxy}imino)-N-[(3S)-2,2-dimethyl-4-oxo-1-(sulfooxy)azetidin-3-yl]ethanamide]
E. coli J62
  MIC: 0.25 µg/mL (≈ 0.44 µM)
E. coli ATCC25922
  MIC: 0.125 µg/mL (≈ 0.22 µM)
E. cloacae 34654
  MIC: 0.25 µg/mL (≈ 0.44 µM)
C. perfringens DSM756
  MIC: 2 µg/mL (≈ 3.52 µM)
E. coli J62-TEM-3
  MIC: 4 µg/mL (≈ 7.05 µM)
M. catarrhalis ICB489
  MIC: ≤ 0.063 µg/mL
H. influenzae ATCC 49247
  MIC: ≤ 0.063 µg/mL
A. baumannii ATCC15308
  MIC: 2 µg/mL (≈ 3.52 µM)
S. maltophilia ICB7569
  MIC: 8 µg/mL (≈ 14.1 µM)
M. morganii 126/3048
  MIC: 0.125 µg/mL (≈ 0.22 µM)
C. freundii K21/3034
  MIC: 0.125 µg/mL (≈ 0.22 µM)
S. pneumoniae 113
  MIC: 4 µg/mL (≈ 7.05 µM)
Strain 21
  MIC: 0.125 µg/mL (≈ 0.22 µM)
[1]
  MIC: 4 µg/mL (≈ 7.05 µM)
Strain 19
  MIC: 0.125 µg/mL (≈ 0.22 µM)
B. fragilis 6688
  MIC: 2 µg/mL (≈ 3.52 µM)
S. aureus 133
  MIC: ≤ 0.063 µg/mL
[2]
  MIC: 4 µg/mL (≈ 7.05 µM)
P. aeruginosa PAO1
  MIC: 2 µg/mL (≈ 3.52 µM)
Strain 20
  MIC: 0.125 µg/mL (≈ 0.22 µM)
K. pneumoniae 60
  MIC: 0.25 µg/mL (≈ 0.44 µM)

## CC1(C)[C@H](NC(=O)/C(=N\OCCOc2ccc(C(=N)N)nc2)c2csc(N)n2)C(=O)N1OS(=O)(=O)O [Example 4, (2Z)-2-(2-Amino-1,3-thiazol-4-yl)-2-({2-[(6-carbamimidoylpyridin-3-yl)oxy]ethoxy}imino)-N-[(3)-2,2-dimethyl-4-oxo-1-(sulfooxy)azetidin-3-yl]ethanamide]
E. coli J62
  MIC: 0.25 µg/mL (≈ 0.461 µM)
E. coli ATCC25922
  MIC: 0.125 µg/mL (≈ 0.23 µM)
E. cloacae 34654
  MIC: 0.5 µg/mL (≈ 0.922 µM)
C. perfringens DSM756
  MIC: 2 µg/mL (≈ 3.69 µM)
E. coli J62-TEM-3
  MIC: 8 µg/mL (≈ 14.7 µM)
M. catarrhalis ICB489
  MIC: ≤ 0.063 µg/mL
H. influenzae ATCC 49247
  MIC: ≤ 0.063 µg/mL
A. baumannii ATCC15308
  MIC: 1 µg/mL (≈ 1.84 µM)
S. maltophilia ICB7569
  MIC: 4 µg/mL (≈ 7.37 µM)
M. morganii 126/3048
  MIC: 0.25 µg/mL (≈ 0.461 µM)
C. freundii K21/3034
  MIC: 0.125 µg/mL (≈ 0.23 µM)
S. pneumoniae 113
  MIC: 16 µg/mL (≈ 29.5 µM)
Strain 21
  MIC: 0.25 µg/mL (≈ 0.461 µM)
[1]
  MIC: 8 µg/mL (≈ 14.7 µM)
Strain 19
  MIC: 0.125 µg/mL (≈ 0.23 µM)
B. fragilis 6688
  MIC: 2 µg/mL (≈ 3.69 µM)
S. aureus 133
  MIC: ≤ 0.063 µg/mL
[2]
  MIC: 16 µg/mL (≈ 29.5 µM)
P. aeruginosa PAO1
  MIC: 4 µg/mL (≈ 7.37 µM)
Strain 20
  MIC: 0.25 µg/mL (≈ 0.461 µM)
K. pneumoniae 60
  MIC: 0.25 µg/mL (≈ 0.461 µM)
